In ChEMBL document CHEMBL1121567, “Synthesis of some 5-phenylhexahydroazepino[4,5-b]indoles as potential neuroleptic agents” (1980) one finds ED50 data, which are given here for 7 molecules.

For one assay, the system named is Rattus norvegicus. Briefly: Effective dose to block muricidal behavior in rat when administered ip. It is filed as functional.
Another assay has as its system Mus musculus. In words: Effective dose to reverse tetrabenazine ptosis in mouse when administered po. It counts as functional.

A value given as a limit tells only on which side of the number the result lay.

For the molecule `CN1CCc2c(n(C)c3ccccc23)C(c2ccccc2)C1` (centres undefined), the ED50 with Rattus norvegicus was greater than 20 mg/kg; in the assay on Mus musculus, greater than 30 mg/kg.

For the molecule `CN1CCc2c([nH]c3ccccc23)C(c2ccccc2)C1` (centres undefined), the ED50 in the assay on Rattus norvegicus was greater than 10 mg/kg; with Mus musculus, 1 mg/kg.

Regarding `c1ccc(C2CNCCc3c2[nH]c2ccccc32)cc1` (centres undefined), the ED50 in the assay on Rattus norvegicus is 2.1 mg/kg; in the assay on Mus musculus it was greater than 30 mg/kg.

With `Cn1c2c(c3ccccc31)CCNCC2c1ccccc1` (centres undefined), the ED50 with Rattus norvegicus is greater than 10 mg/kg; in the assay on Mus musculus, greater than 30 mg/kg.

For the molecule `COc1ccc2[nH]c3c(c2c1)CCN(C)CC3c1ccccc1` (centres undefined), the ED50 was greater than 10 mg/kg with Rattus norvegicus and 1.9 mg/kg with Mus musculus.

Turning to `COc1ccc2[nH]c3c(c2c1)CCNCC3c1ccccc1` (centres undefined), the ED50 in the assay with Rattus norvegicus is 12.2 mg/kg; in the assay on Mus musculus, greater than 30 mg/kg.

With `CN(C)CCCN1c2ccccc2CCc2ccccc21` [IMIPRAMINE], the figures for the ED50 in the assay with Rattus norvegicus and in the assay with Mus musculus were 20.2 mg/kg and 2 mg/kg, respectively.
